From patent publication US5597845A, “Substituted alkyldiamine derivatives” (Merrell Pharmaceuticals Inc., priority 1994, dated 1997)

Assays:
NK1 receptor [1] = biological target: T1, NK1 receptor (Cavia porcellus, UniProt P30547); test: Antagonism of iodinated tachykinin binding: NK1 receptor affinity in guinea pig lungs (125I-Bolton Hunter Lys-3 labeled substance P); conditions: 125I-substance P 0.1 nM, 90 min room temperature, mean of several experiments
T1 construct: evaluated in guinea pig lungs; tissue Keystone Biologicals, Cleveland, Ohio; host or cells: guinea pig lung
Experimental: (§1) The NK1 receptor affinity of proposed tachykinin antagonists was evaluated in guinea pig lungs (Keystone Biologicals, Cleveland, Ohio) and affinity for the NK2 receptor evaluated in HSKR-1 cells (which are mouse 3T3 fibroblasts expressing the human jejunal NK2 receptor). Tissues or cells were homogenized with a Polytron in 15 volumes of 50 mM Tris-HCl buffer (pH 7.4, 4° C.) and centrifuged. The pellet was resuspended in Tris-HCl buffer and was centrifuged; the pellet was washed twice by resuspension. The final pellet was resuspended at a concentration of 40 mg/ml for tissues and 20 mg/ml for cells in incubation buffer and remained at room temperature for at least 15 min prior to use. Receptor binding was initiated by addition of 250 ul membrane preparation in duplicate to 0.1 nM of the following radioligands: ^125 I-Bolton Hunter Lys-3 labeled substance P and ^125 iodohistidyl-1-neurokinin A; in a final volume of 500 ul of buffer containing 50 mM Tris-HCl (pH 7.4 at room temperature), 0.1% bovine serum albumin, 2 mM MnCl2, 40 ug/ml bacitracin, 4 μg/ml leupeptin and chymostatin, 1 μM thiorphan and various doses of the putative tachykinin antagonists. Incubations were performed at room temperature for 90 min (NK1 receptor assays) or 2 hr (NK2 receptor assay); binding was terminated by addition of 50 mM Tris-HCl buffer (pH 7.4, 4° C.) and filtration under vacuum through GF/B filters presoaked with 0.1% polyethyleneimine (NK, receptor assays) or 0.5% bovine serum albumin (NK2 receptor assay). Filter bound radioactivity was quantitated in a gamma counter. Nonspecific binding was defined as binding in the presence of 1 μM substance P or neurokinin A. Specific binding was calculated by subtracting nonspecific binding from total binding. Competition of iodinated SP or NKA binding by test compounds or standards was expressed as a percentage of this maximum competition. IC50 values (concentration required to inhibit 50% of receptor binding) were generated for each of the test compounds by nonlinear regression using an iterative curve fitting program (GraphPAD Inplot, San Diego, Calif.).
(§2) IC50 values for some of the compounds of the present invention are found in Table 1 and represent the mean of several experiments.

[2] = biological target: T2, human jejunal NK2 receptor (Homo sapiens, UniProt P21452); test: Antagonism of iodinated tachykinin binding: NK2 receptor affinity in HSKR-1 cells (125 iodohistidyl-1-neurokinin A); conditions: HSKR-1 cells (mouse 3T3 fibroblasts expressing human jejunal NK2 receptor); 125I-neurokinin A 0.1 nM; 2 hr room temperature; mean of several experiments
T2 construct: expressed in transfected cells; host or cells: HSKR-1 cells (mouse 3T3 fibroblasts)
T2 sequence (P21452 1-398): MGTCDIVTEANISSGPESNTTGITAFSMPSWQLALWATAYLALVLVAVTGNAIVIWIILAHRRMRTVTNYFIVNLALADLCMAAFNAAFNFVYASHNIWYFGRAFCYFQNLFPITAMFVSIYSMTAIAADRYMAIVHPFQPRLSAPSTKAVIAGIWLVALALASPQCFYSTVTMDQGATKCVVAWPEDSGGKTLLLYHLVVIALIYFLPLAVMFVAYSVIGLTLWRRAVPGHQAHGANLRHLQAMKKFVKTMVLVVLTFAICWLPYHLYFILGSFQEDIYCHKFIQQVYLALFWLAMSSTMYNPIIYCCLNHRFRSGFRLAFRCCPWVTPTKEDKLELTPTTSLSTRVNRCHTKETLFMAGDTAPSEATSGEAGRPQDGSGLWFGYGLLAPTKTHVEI
Experimental: as §1, §2

NK1 receptor [3] = biological target: T3, NK1 receptor (Homo sapiens, UniProt P25103); test: Antagonism of tachykinin (SP)-induced phosphatidylinositol (PI) turnover in vitro, UCll cells; assay type: cell-based; conditions: SP agonist, 3 experiments
T3 construct: Receptor source for NK1 receptor is UCll cells; endogenous in cells; host or cells: UC11 cells (printed UCll)
Experimental: (§3) Tachykinin-mediated phosphatidylinositol (PI, inositol phosphate) accumulation was measured in UCll or SKLKB82#3 cells in the presence and absence of NK1 or NK2 receptor antagonists, respectively. Tissues were incubated in Krebs-Henseleit buffer at 37° C. with 95% O2 --5% CO2 gassing. Tissues were then incubated with fresh buffer containing 100 μCi of myo-[2-^3 H(N)] inositol at 37° C. for 60 min with gentle gassing. After washing twice in 5 ml room temperature buffer containing 10 mM LiCl, tissues were incubated for 30 min at room temperature with a buffer change at 15 min. […] The third elution was collected and 1 ml counted in 7 ml scintillation fluid. A 50 μl aliquot of the organic (bottom) phase was removed, dried in a scintillation vial and counted in 7 ml scintillation fluid.
(§4) The ratio of DPM in the aqueous phase aliquot (total inositol phosphates) to the DPM in the 50 μl organic phase aliquot (total [^3 H]inositol incorporated) was calculated for each sample. Data are expressed as a percent of agonist-induced accumulation of [^3 H]-inositol phosphates over basal levels. […] Dose-response graphs are constructed and the ability of the test compounds to inhibit tachykinin-induced phosphatidyinositol turnover determined with the aid of a computer program. […]

NK2 receptor = biological target: T4, NK2 receptor (Bos taurus, UniProt P05363); test: Antagonism of tachykinin (NKA)-induced phosphatidylinositol (PI) turnover in vitro, SKLKB82#3 cells; assay type: cell-based; conditions: NKA agonist, 3 experiments
T4 construct: expressed in transfected cells; host or cells: SKLKB82#3 cells (murine B82 fibroblasts, own knowledge)
T4 sequence (P05363 1-384): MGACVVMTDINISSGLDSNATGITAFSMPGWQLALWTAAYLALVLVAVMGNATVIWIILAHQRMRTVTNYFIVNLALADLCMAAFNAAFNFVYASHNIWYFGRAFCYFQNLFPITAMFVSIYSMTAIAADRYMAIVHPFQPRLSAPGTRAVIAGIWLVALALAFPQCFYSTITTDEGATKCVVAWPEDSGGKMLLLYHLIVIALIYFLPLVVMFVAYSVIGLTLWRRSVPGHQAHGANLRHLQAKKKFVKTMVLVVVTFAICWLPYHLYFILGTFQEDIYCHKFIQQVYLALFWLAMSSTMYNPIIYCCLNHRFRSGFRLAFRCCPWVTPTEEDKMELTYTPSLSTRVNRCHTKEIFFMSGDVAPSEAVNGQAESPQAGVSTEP
Experimental: as §3, §4

UCll or SKLKB82#3 cells = test: Phosphatidylinositol (PI) turnover in vitro, UCll or SKLKB82#3 cells, statements not split by receptor; assay type: cell-based
Experimental: as §3, with “min. Buffer was removed and Krebs-Henseleit buffer (containing 40 μg/ml bacitracin, 4 μg/ml each of leupeptin and chymostatin, 0.1% bovine serum albumin and 10 mM each of thiorphan and LiCl) including the test compound is added. After 15 min, SP was added to UCll cells or NKA to SKLKB82#3 cells at various concentrations to start the reaction. After incubation for 60 min at room temperature the reaction was terminated by addition of 930 μl chloroform: methanol (1:2 by volume) to each tube, followed by 310 μl chloroform and 310 μl doubly distilled water.” for “min.”
as §4, with “program. Data is expressed as percent stimulation of total inositol phosphate accumulation over basal levels and normalized to the maximum response produced by SP.” for “program.”

T1 sequence (P30547 whole entry): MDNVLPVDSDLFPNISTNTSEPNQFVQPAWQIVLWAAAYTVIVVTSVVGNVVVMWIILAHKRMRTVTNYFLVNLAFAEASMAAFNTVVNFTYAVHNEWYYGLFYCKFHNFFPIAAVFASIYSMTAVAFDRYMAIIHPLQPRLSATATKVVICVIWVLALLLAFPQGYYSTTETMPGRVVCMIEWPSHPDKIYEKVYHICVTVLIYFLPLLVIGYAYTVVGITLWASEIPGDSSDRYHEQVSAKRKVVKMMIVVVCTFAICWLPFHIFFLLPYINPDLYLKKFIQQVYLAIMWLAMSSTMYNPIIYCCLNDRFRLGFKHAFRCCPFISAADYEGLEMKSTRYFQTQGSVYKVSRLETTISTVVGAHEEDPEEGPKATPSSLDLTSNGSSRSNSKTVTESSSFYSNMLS
T3 sequence (P25103 whole entry): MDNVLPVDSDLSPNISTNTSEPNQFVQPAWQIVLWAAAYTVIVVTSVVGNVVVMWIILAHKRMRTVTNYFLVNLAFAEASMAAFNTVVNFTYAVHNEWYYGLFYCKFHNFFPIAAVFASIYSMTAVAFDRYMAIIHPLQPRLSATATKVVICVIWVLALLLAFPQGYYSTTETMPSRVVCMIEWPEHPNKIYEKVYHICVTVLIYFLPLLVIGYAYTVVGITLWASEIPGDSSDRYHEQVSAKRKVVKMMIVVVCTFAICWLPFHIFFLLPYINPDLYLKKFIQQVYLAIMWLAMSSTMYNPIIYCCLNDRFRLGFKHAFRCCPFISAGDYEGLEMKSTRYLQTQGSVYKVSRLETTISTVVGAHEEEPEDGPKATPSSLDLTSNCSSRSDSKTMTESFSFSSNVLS

IC50 (NK1 receptor [1]) [µM] | IC50 [2] [µM] | -slope (Schild analysis), NK1 receptor (NK1 receptor [3]) | pA2, tachykinin-induced PI turnover, NK1 receptor (NK1 receptor [3]; Schild analysis) | -slope (Schild analysis), NK2 receptor (NK2 receptor) | pA2, tachykinin-induced PI turnover, NK2 receptor (NK2 receptor; Schild analysis) | SMILES | slope of the lines obtained by a Schild analysis versus one (UCll or SKLKB82#3 cells; Schild analysis, 3 experiments) | PI turnover when administered by itself (agonist activity) (UCll or SKLKB82#3 cells; compound alone, no tachykinin agonist) | mode of antagonism (UCll or SKLKB82#3 cells; from Schild analysis slope)
0.0257 | 0.609 | 1.28 | 7.34 | 1.11 | 6.70 | COC(=O)[C@H](Cc1c[nH]c2ccccc12)NCCN[C@@H](Cc1ccc2ccccc2c1)C(=O)N(C)Cc1ccccc1OC [Compound No. 1] | not significantly different from one (1) | no PI turnover | competitive antagonist
10 | 1.22 |  |  |  |  | COC(=O)[C@H](Cc1c[nH]c2ccccc12)NCCN[C@@H](Cc1ccccc1)CN(C)C(=O)c1ccccc1 [Compound No. 14, N-Methyl-N-[(S)-2-[[(S)-2-(1H-indol-3-yl)-1-carboxymethyl-ethylamino]-ethylamino]-3-phenyl-propyl]-benzamide] |  |  | 
3.8 | 1.58 |  |  |  |  | CN(Cc1ccccc1)C(=O)[C@H](Cc1ccccc1)NCCN[C@@H](Cc1c[nH]c2ccccc12)C(=O)O [Compound No. 16, (S)-N-Benzyl-N-methyl-2-[[(S)-2-(1H-indol-3-yl)-1-carboxy-ethylamino]-ethylamino]-3-phenyl-propionamide] |  |  | 

SMILES | IC50 (NK1 receptor [1]) [µM] | IC50 [2] [µM] | -slope (Schild analysis), NK1 receptor (NK1 receptor [3]) | pA2, tachykinin-induced PI turnover, NK1 receptor (NK1 receptor [3]; Schild analysis) | -slope (Schild analysis), NK2 receptor (NK2 receptor) | pA2, tachykinin-induced PI turnover, NK2 receptor (NK2 receptor; Schild analysis) | slope of the lines obtained by a Schild analysis versus one (UCll or SKLKB82#3 cells; Schild analysis, 3 experiments) | PI turnover when administered by itself (agonist activity) (UCll or SKLKB82#3 cells; compound alone, no tachykinin agonist) | mode of antagonism (UCll or SKLKB82#3 cells; from Schild analysis slope)
COC(=O)[C@H](Cc1c[nH]c2ccccc12)NCCN(C(=O)OC(C)(C)C)[C@@H](Cc1ccc2ccccc2c1)C(=O)N(C)Cc1ccccc1 [Compound No. 15, (S)-N-Benzyl-N-methyl-2-[[(S)-2-(1H-indol-3-yl)-1-carboxymethyl-ethylamino]-N'-(t-butoxycarbonyl)ethylamino]-3-(naphth-2-yl)-propionamide] | > 10 | 2.56 |  |  |  |  |  |  | 
